In patent publication US11510933B2, “Use of Pulsatilla chinensis extract in the preparation of drugs for treatment of viral and/or bacterial diseases” (priority 2018, dated 2022):

How the values were obtained:
cow foot rot disease = assay: treatment of cow foot rot disease; format: in vivo, cows; conditions: for Milk production (daily yield) / Total number of cured cows: n = 10
canine renal failure = assay: treatment of canine renal failure; format: in vivo, dogs; conditions: 14 days, n = 10
feline parvovirus = assay: treatment of feline parvovirus; format: in vivo, cats; parameters: White blood cell count: unit not given here; conditions: 14 days, n = 10
Description: (§1) Anemoside B4 injection prepared in example 3, with a concentration of 50 mg/mL.
Cats suffering from feline parvovirus are cases received by various pet hospitals in Chengdu.
Cats occasionally having fever, severe vomiting, and diarrhea; the stool changing from gray to yellow and finally to milky white, accompanied by jelly-like mucus; stools liking tomato sauce, smelly and unpleasant; having a lying prone; the number of white blood cells dropping sharply, cold limbs, highly depressed spirit, then shock to death.
(§2) Anemoside B4 injection was intravenously injected, 2 mL/time in low-dose group, 4 mL/time in medium-dose group, 8 mL/time in high-dose group, once a day; anemoside B4 injection was intramuscularly injected, 1 mL/time in low-dose group, 2 mL/time in the middle-dose group, 4 mL/time in the high-dose group, twice a day; the treatment was kept for 14 days.

canine acute nephritis = assay: treatment of canine acute nephritis; format: in vivo, dogs; conditions: 14 days, n = 10; for Positive rate of white blood cell (+++, %): urine
Description: as §1
Dogs suffering from acute nephritis are cases received by various pet hospitals in Chengdu city.
The sick dogs are characterized by loss of appetite, indigestion, depression, and a slight increase in body temperature.
as §2

canine parvovirus = assay: treatment of canine parvovirus; format: in vivo, dogs; parameters: White blood cell count: unit not given here; conditions: 14 days, n = 10
Description: as §1
Dogs suffering from canine parvovirus are cases received by various pet hospitals in Chengdu.
In the early, dogs have high temperature and vomit violently. The vomit changes from white to yellow, and finally to green, with a small amount of blood streak; eyes' conjunctival congestion and tears; liking drinking water and vomiting after drinking; fecal jets are like tomato sauce, smelly and unpleasant; preferring to lie down; the number of white blood cells dropped sharply, together with severe dehydration, heart failure, and shock to death.
as §2

[1] = high-dose, intravenous injection 60 mL (50 mg/mL), once a day, 4 days
[2] = high-dose, pulvis 1.5 g, external application, once every other day, 4 times
[3] = high-dose, subcutaneous injection 15 mL (50 mg/mL) in affected limbs, once a day, 4 days
[4] = low-dose, intravenous injection 20 mL (50 mg/mL), once a day, 4 days
[5] = low-dose, pulvis 0.5 g, external application, once every other day, 4 times
[6] = low-dose, subcutaneous injection 5 mL (50 mg/mL) in affected limbs, once a day, 4 days
[7] = medium-dose, intravenous injection 40 mL (50 mg/mL), once a day, 4 days
[8] = medium-dose, pulvis 1.0 g, external application, once every other day, 4 times
[9] = medium-dose, subcutaneous injection 10 mL (50 mg/mL) in affected limbs, once a day, 4 days
[10] = high-dose, intramuscular injection 4 mL/time (50 mg/mL), twice a day
[11] = high-dose, intravenous injection 8 mL/time (50 mg/mL), once a day
[12] = low-dose, intramuscular injection 1 mL/time (50 mg/mL), twice a day
[13] = low-dose, intravenous injection 2 mL/time (50 mg/mL), once a day
[14] = medium-dose, intramuscular injection 2 mL/time (50 mg/mL), twice a day
[15] = medium-dose, intravenous injection 4 mL/time (50 mg/mL), once a day

Compound: C=C(C)[C@@H]1CC[C@]2(C(=O)O[C@@H]3O[C@H](CO[C@@H]4O[C@H](CO)[C@@H](O[C@@H]5O[C@@H](C)[C@H](O)[C@@H](O)[C@H]5O)[C@H](O)[C@H]4O)[C@@H](O)[C@H](O)[C@H]3O)CC[C@]3(C)[C@H](CC[C@@H]4[C@@]5(C)CC[C@H](O[C@@H]6OC[C@H](O)[C@H](O)[C@H]6O[C@@H]6O[C@@H](C)[C@H](O)[C@@H](O)[C@H]6O)[C@@](C)(CO)[C@@H]5CC[C@]43C)[C@H]12 [anemoside B4]
- cure rate (cow foot rot disease; high-dose subcutaneous injection group, middle- and high-dose pulvis groups): above 80%
- Milk production (daily yield) (cow foot rot disease; [1]): 22.2 ± 1.5 kg/cow
- Total number of cured cows (cow foot rot disease; [1]): 6
- Milk production (daily yield) (cow foot rot disease; [2]): 25.9 ± 2.4 kg/cow
- Total number of cured cows (cow foot rot disease; [2]): 9
- Milk production (daily yield) (cow foot rot disease; [3]): 25.6 ± 2.8 kg/cow
- Total number of cured cows (cow foot rot disease; [3]): 8
- Milk production (daily yield) (cow foot rot disease; [4]): 18.2 ± 1.4 kg/cow
- Total number of cured cows (cow foot rot disease; [4]): 4
- Milk production (daily yield) (cow foot rot disease; [5]): 22.6 ± 2.5 kg/cow
- Total number of cured cows (cow foot rot disease; [5]): 6
- Milk production (daily yield) (cow foot rot disease; [6]): 20.4 ± 1.9 kg/cow
- Total number of cured cows (cow foot rot disease; [6]): 5
- Milk production (daily yield) (cow foot rot disease; [7]): 20.8 ± 2.2 kg/cow
- Total number of cured cows (cow foot rot disease; [7]): 5
- Milk production (daily yield) (cow foot rot disease; [8]): 24.2 ± 1.7 kg/cow
- Total number of cured cows (cow foot rot disease; [8]): 8
- Milk production (daily yield) (cow foot rot disease; [9]): 22.1 ± 1.6 kg/cow
- Total number of cured cows (cow foot rot disease; [9]): 7
- Body temperature (canine renal failure; [10]): 38.5 ± 0.2 °C
- Creatinine (canine renal failure; [10]): 100 ± 30 µmol/L
- Inorganic phosphous (canine renal failure; [10]): 1.4 ± 0.08 mmol/L
- Mortality rate (canine renal failure; [10]): 40%
- Urea (canine renal failure; [10]): 14.2 ± 0.4 mmol/L
- Body temperature (canine renal failure; [11]): 38.6 ± 0.4 °C
- Creatinine (canine renal failure; [11]): 109 ± 20 µmol/L
- Inorganic phosphous (canine renal failure; [11]): 0.9 ± 0.06 mmol/L
- Mortality rate (canine renal failure; [11]): 20%
- Urea (canine renal failure; [11]): 8.7 ± 0.3 mmol/L
- Body temperature (canine renal failure; [12]): 37.8 ± 0.3 °C
- Creatinine (canine renal failure; [12]): 130 ± 19 µmol/L
- Inorganic phosphous (canine renal failure; [12]): 1.6 ± 0.02 mmol/L
- Mortality rate (canine renal failure; [12]): 60%
- Urea (canine renal failure; [12]): 20.8 ± 0.5 mmol/L
- Body temperature (canine renal failure; [13]): 38.3 ± 0.5 °C
- Creatinine (canine renal failure; [13]): 117 ± 25 µmol/L
- Inorganic phosphous (canine renal failure; [13]): 1.1 ± 0.05 mmol/L
- Mortality rate (canine renal failure; [13]): 40%
- Urea (canine renal failure; [13]): 11.8 ± 0.6 mmol/L
- Body temperature (canine renal failure; [14]): 38.2 ± 0.4 °C
- Creatinine (canine renal failure; [14]): 120 ± 26 µmol/L
- Inorganic phosphous (canine renal failure; [14]): 2.0 ± 0.03 mmol/L
- Mortality rate (canine renal failure; [14]): 50%
- Urea (canine renal failure; [14]): 17.5 ± 0.7 mmol/L
- Body temperature (canine renal failure; [15]): 38.5 ± 0.3 °C
- Creatinine (canine renal failure; [15]): 115 ± 12 µmol/L
- Inorganic phosphous (canine renal failure; [15]): 1.5 ± 0.04 mmol/L
- Mortality rate (canine renal failure; [15]): 30%
- Urea (canine renal failure; [15]): 9.9 ± 0.8 mmol/L
- Mortality rate (feline parvovirus; [10]): 50%
- White blood cell count (feline parvovirus; [10]): 9.1 ± 0.5 ×10^9
- Mortality rate (feline parvovirus; [11]): 40%
- White blood cell count (feline parvovirus; [11]): 9.3 ± 0.9 ×10^9
- Mortality rate (feline parvovirus; [12]): 90%
- White blood cell count (feline parvovirus; [12]): 4.7 ± 0.3 ×10^9
- Mortality rate (feline parvovirus; [13]): 80%
- White blood cell count (feline parvovirus; [13]): 7.7 ± 0.4 ×10^9
- Mortality rate (feline parvovirus; [14]): 70%
- White blood cell count (feline parvovirus; [14]): 7.8 ± 0.6 ×10^9
- Mortality rate (feline parvovirus; [15]): 60%
- White blood cell count (feline parvovirus; [15]): 8.8 ± 0.7 ×10^9
- Body temperature (canine acute nephritis; [10]): 39.0 ± 0.2 °C
- Mortality rate (canine acute nephritis; [10]): 50%
- Positive rate of urine protein (+++, %) (canine acute nephritis; [10]): 60%
- Urine specific gravity (canine acute nephritis; [10]): 1.064 ± 0.02
- Body temperature (canine acute nephritis; [11]): 38.5 ± 0.4 °C
- Mortality rate (canine acute nephritis; [11]): 30%
- Positive rate of urine protein (+++, %) (canine acute nephritis; [11]): 30%
- Urine specific gravity (canine acute nephritis; [11]): 1.003 ± 0.01
- Body temperature (canine acute nephritis; [12]): 39.5 ± 0.3 °C
- Mortality rate (canine acute nephritis; [12]): 60%
- Positive rate of urine protein (+++, %) (canine acute nephritis; [12]): 80%
- Urine specific gravity (canine acute nephritis; [12]): 1.123 ± 0.01
- Body temperature (canine acute nephritis; [13]): 38.7 ± 0.5 °C
- Mortality rate (canine acute nephritis; [13]): 50%
- Positive rate of urine protein (+++, %) (canine acute nephritis; [13]): 50%
- Urine specific gravity (canine acute nephritis; [13]): 1.017 ± 0.25
- Body temperature (canine acute nephritis; [14]): 39.3 ± 0.4 °C
- Mortality rate (canine acute nephritis; [14]): 60%
- Positive rate of urine protein (+++, %) (canine acute nephritis; [14]): 70%
- Urine specific gravity (canine acute nephritis; [14]): 1.094 ± 0.04
- Body temperature (canine acute nephritis; [15]): 38.8 ± 0.3 °C
- Mortality rate (canine acute nephritis; [15]): 40%
- Positive rate of urine protein (+++, %) (canine acute nephritis; [15]): 40%
- Urine specific gravity (canine acute nephritis; [15]): 1.005 ± 0.09
- Positive rate of white blood cell (+++, %) (canine acute nephritis; [10]): 70%
- Positive rate of white blood cell (+++, %) (canine acute nephritis; [11]): 30%
- Positive rate of white blood cell (+++, %) (canine acute nephritis; [12]): 80%
- Positive rate of white blood cell (+++, %) (canine acute nephritis; [13]): 60%
- Positive rate of white blood cell (+++, %) (canine acute nephritis; [14]): 80%
- Positive rate of white blood cell (+++, %) (canine acute nephritis; [15]): 40%
- Body temperature (canine parvovirus; [10]): 37.8 ± 0.4 °C
- Mortality rate (canine parvovirus; [10]): 50%
- White blood cell count (canine parvovirus; [10]): 6.2 ± 0.5 ×10^9
- Body temperature (canine parvovirus; [11]): 37.4 ± 0.2 °C
- Mortality rate (canine parvovirus; [11]): 30%
- White blood cell count (canine parvovirus; [11]): 8.2 ± 0.7 ×10^9
- Body temperature (canine parvovirus; [12]): 39.2 ± 0.5 °C
- Mortality rate (canine parvovirus; [12]): 80%
- White blood cell count (canine parvovirus; [12]): 3.3 ± 0.3 ×10^9
- Body temperature (canine parvovirus; [13]): 38.2 ± 0.5 °C
- Mortality rate (canine parvovirus; [13]): 50%
- White blood cell count (canine parvovirus; [13]): 6.3 ± 0.4 ×10^9
- Body temperature (canine parvovirus; [14]): 38.4 ± 0.3 °C
- Mortality rate (canine parvovirus; [14]): 60%
- White blood cell count (canine parvovirus; [14]): 4.6 ± 0.8 ×10^9
- Body temperature (canine parvovirus; [15]): 37.6 ± 0.3 °C
- Mortality rate (canine parvovirus; [15]): 40%
- White blood cell count (canine parvovirus; [15]): 7.6 ±0.6 ×10^9
